We go through eight molecules from patent publication US5721245A, “4-[3-indolyl]-1H-pyrrolone” (Hoffmann-La Roche Inc., priority 1989, dated 1998).

Where a name gives a salt, the structure may show the parent alone.

This assay concerns the target protein kinase C. Description: Inhibition of protein kinase C in vitro (protein kinase-induced incorporation of 32P from [γ-32P]ATP into histone). In kind it is biochemical. To be noted: concentration which reduces by 50% the protein kinase-induced incorporation of 32P from [γ-32P]ATP into histone. An excerpt:
The IC50 FIGURES in the following Table are that concentration of test compound which reduces by 50% the protein kinase-induced incorporation of ^32 P from [γ-^32 P]ATP into histone.
For `Cn1cc(C2=C(c3c4n(c5ccccc35)CC(CSC(=N)N)CC4)C(=O)NC2=O)c2ccccc21` (centres unmarked) [3-[7-(amidinothiomethyl)-6,7,8,9-tetrahydropyrido[1,2-a]indol-10-yl]-4-(1-methyl-3-indolyl)-1H-pyrrole-2,5-dione methanesulfonate], 0.01 µM corresponded to half-maximal inhibition (IC50).

Take `Cn1cc(C2=C(c3c4n(c5ccccc35)CC(CCN)CC4)C(=O)NC2=O)c2ccccc21` (centres unmarked) [3-[7-(2-aminoethyl)-6,7,8,9-tetrahydropyrido[1,2-a]indol-10-yl]-4-(1-methyl-3-indolyl)-1H-pyrrole-2,5-dione hydrochloride]: the IC50 (commonly the concentration that gives 50% inhibition) worked out at 0.02 µM.

Consider `Cn1cc(C2=C(c3c4n(c5ccccc35)CC(CN)CC4)C(=O)NC2=O)c2ccccc21` (centres unmarked) [3-[7-(aminomethyl)-6,7,8,9-tetrahydropyrido[1,2-a]indol-10-yl]-4-(1-methyl-3-indolyl)-1H-pyrrole-2,5-dione], for which half-maximal inhibition (IC50) required 0.015 µM.

For the molecule `Cn1cc(C2=C(c3c4n(c5ccccc35)CCC(CN)C4)C(=O)NC2=O)c2ccccc21` (centres unmarked) [3-[8-(aminomethyl)-6,7,8,9-tetrahydropyrido[1,2-a]indol-10-yl]-4-(1-methyl-3-indolyl)-1H-pyrrole-2,5-dione hydrochloride], the midpoint of inhibition, the IC50, lay at 0.008 µM.

`Cn1cc(C2=C(c3c4n(c5ccccc35)CCN(C(=O)CN)C4)C(=O)NC2=O)c2ccccc21` [3-[2-(aminoacetyl)-1,2,3,4-tetrahydropyrazino[1,2-a]indol-10-yl]-4-(1-methyl-3-indolyl)-1H-pyrrole-2,5-dione hydrochloride] registered an IC50 of 0.05 µM.

`Cn1cc(C2=C(c3c4n(c5ccccc35)CCC(CN3CCCCC3)C4)C(=O)NC2=O)c2ccccc21` (centres unmarked) [3-[6,7,8,9-tetrahydro-8-[(1-piperidino)methyl]pyrido[1,2-a]indol-10-yl]-4-(1-methyl-3-indolyl)-1H-pyrrole-2,5-dione] gave an IC50 of 0.03 µM.

`CN(C)CC1Cc2c(C3=C(c4cn(C)c5ccccc45)C(=O)NC3=O)c3ccccc3n2C1` (centres unmarked) [3-[2,3-dihydro-2-(dimethylaminomethyl)-1H-pyrrolo[1,2-a]indol-9-yl]-4-(1-methyl-3-indolyl)-1H-pyrrole-2,5-dione trifluoromethanesulphonate] had a concentration for half-maximal inhibition (IC50) of 0.02 µM.

Regarding `Cn1cc(C2=C(c3c4n(c5ccccc35)CCC(C(=N)N)C4)C(=O)NC2=O)c2ccccc21` (centres unmarked) [3-[8-amidino-6,7,8,9-tetrahydropyrido[1,2-a]indol-10-yl]-4-(1-methyl-3-indolyl)-1H-pyrrole-2,5-dione hydrochloride], the IC50 is 0.06 µM.
